Tests used:
HEK293FT cells = test: HGind-H composed of two plasmids transfected into HEK293FT cells, D2eGFP fluorescence intensity after D-2-HG addition; format: cell-based; settings: ratio 0.4
Experimental: (3) The plasmid was transfected into HEK293FT cells with lipofectamine 3000; a transfection plasmid combination 1 was pCDNA3.1(+)-DhdR-KRAB and pCDNA3.1(+)-DhdO10-D2eGFP or a plasmid combination 2 was pCDNA3.1(+)-KRAB-DhdR and pCDNA3.1(+)-DhdO10-D2eGFP; 3*105/well of cells were seeded in a 12-well plate, pcDNA3.1(+)-DhdO10-D2eGFP was added at lug/well, and the ratio of the recombinant transcriptional repressor plasmid to PcDNA3.1(+)-DhdO10-D2eGFP was 0:1, 1:1, 3:1.
(4) On the next day, D-2-HG was added at concentrations of 0 mM, 1 mM, 5 mM, and 10 mM; 64 h after transfection, a fluorescence microscope was used to take pictures, the supernatant was aspirated, a fluorescence microplate reader measured fluorescence intensities, and results were shown in FIG. 2.
(1) pCDNA3.1(+)-DhdR-KRAB and pCDNA3.1(+)-DhdO10-D2eGFP were selected, and then transfected using liposomes as above; the ratio of the two plasmids was set to 0, 0.1, 0.3, 0.4, 0.5, 0.75, 1.
(2) On the next day, D-2-HG was added at concentrations of 0 mM and 5 mM; and 64 h after transfection, a fluorescence microscopy was used to take pictures, the supernatant was aspirated, and a fluorescence microplate reader measured a fluorescence intensity. […]
(2) On the next day, D-2-HG was added at concentrations of 0, 0.5, 1, 5, 10, and 20 mM; and a fluorescence microplate reader measured a fluorescence intensity.

HT1080-DHDO14 tumor = test: HGind-H control of suicide gene in animals, HT1080 vs HT1080-DHDO14 tumors with GCV; format: in vivo, Balb/c nude crlj; settings: GCV 50 mg/kg per day i.p.
Experimental: (1) 18 Balb/c nude crlj which are male and 5 weeks old were purchased. HT1080 and HT-1080-DHDO14 cells were resuspended with PBS and injected at 1.5×10^6 cells/side*mouse (volume: 100 μl), where HT1080 was injected into the left backs of the mice and HT1080-DHDO14 was injected into the right backs of the mice.
(2) The mice were divided into two groups, the control group (n=8) was injected with normal saline, and the experimental group (n=10) was injected with ganciclovir (GCV).
(3) From the 5th to the 12th day of tumor model construction, each mouse in the control group was intraperitoneally injected with normal saline at 100 μl/day, and each mouse in the experimental group was intraperitoneally injected with GCV at 50 mg/kg per day. Starting from the 8th day, the long and short diameters of tumors of the mice were measured every day.
(4) The mice were killed on the 14th day and the tumors of the mice were weighed.

Compound | fluorescence intensity (D2eGFP expression) (HEK293FT cells; 0.5 mM D-2-HG vs 0 mM group, pCDNA3.1(+)-DhdR-KRAB and DhdO7-D2eGFP) | fluorescence intensity (D2eGFP expression), dose response (HEK293FT cells; D-2-HG 0, 0.5, 1, 5, 10, 20 mM) | size of HT1080-DHDO14 tumor vs HT1080 tumor on the left side (HT1080-DHDO14 tumor; day 5 to 12) | volume of the HT1080-DHDO14 tumor vs the other three groups (HT1080-DHDO14 tumor; later stage of measurement) | weight of the HT1080-DHDO14 tumor vs the other 3 groups (HT1080-DHDO14 tumor; mice killed on the 14th day)
O=C(O)CC[C@@H](O)C(=O)O [D-2-HG, D-2-hydroxyglutarate] | significant difference | as the concentration increases, the fluorescence intensity becomes larger and larger |  |  | 
Nc1nc(O)c2ncn(COC(CO)CO)c2n1 [GCV, ganciclovir] |  |  | significantly smaller | significantly less | significantly less
